Tests used:
GPX1 = target: T1, GPX1 (Homo sapiens, UniProt P07203); assay: BLI binding assay, GPX1
T1 construct: purchased Abcam
T1 sequence (P07203 1-203): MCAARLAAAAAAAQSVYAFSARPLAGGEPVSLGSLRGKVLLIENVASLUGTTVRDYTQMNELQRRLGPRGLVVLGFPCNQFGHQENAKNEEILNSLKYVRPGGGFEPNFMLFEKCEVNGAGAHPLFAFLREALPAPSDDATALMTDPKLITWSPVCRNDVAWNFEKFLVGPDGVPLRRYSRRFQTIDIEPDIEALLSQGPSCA
Method: The binding kinetics of PepE or PepA to purified recombinant proteins were determined using BLI on an Octet RED 96 system (ForteBio, Shanghai, China) following the manufacturer's protocol. All interaction analyses were performed at 25 °C in PBS with 0.2% DMSO. Purified recombinant proteins (0.9 μM, the TrxR1 full length and TrxR1 protein fragment were pre-reduced by 400 μM of NADPH before test) were pre-labeled with biotin using […] (Abcam) following the manufacturer's instruction. Loading of the Dip and Read Super Streptavidin (SSA) Biosensors (ForteBio) were conducted by exposing biotinylated proteins to biosensor tips for 2 h. The 96-well microplates used in the Octet were filled with 200 μL sample or buffer per well and agitated at 1000 rpm. The loaded biosensors were washed in buffer for 600 s and transferred to wells containing PepE at concentrations of 0.625, 1.25, 2.5, 5, and 10 μM or PepA at concentrations of 1.25, 2.5, 5, 10 and 20 μM, respectively, in the buffer. […] Reference measurements were conducted using the buffer instead of PepE (or PepA). A parallel set of SA unloaded biosensors was prepared to act as a control. […] Kinetic parameters (Kon and Kdis) and affinity (KD) were determined from a global fit to a 1:1 binding model of the data between proteins and PepE using Octet software (ForteBio).

[1] = target: T2, TrxR1 without Sec498 residue (TrxR1 nSec) (Homo sapiens, UniProt Q16881); assay: In vitro TrxR1 activity assay (DTNB reduction), Sec-missing enzyme; assay type: biochemical; conditions: Sec-missing enzyme 0.1 μM
T2 construct: protein fragment, without selenocysteine residue; purchased Abcam ab168011
T2 sequence (Q16881 1-497 isoform Q16881-5): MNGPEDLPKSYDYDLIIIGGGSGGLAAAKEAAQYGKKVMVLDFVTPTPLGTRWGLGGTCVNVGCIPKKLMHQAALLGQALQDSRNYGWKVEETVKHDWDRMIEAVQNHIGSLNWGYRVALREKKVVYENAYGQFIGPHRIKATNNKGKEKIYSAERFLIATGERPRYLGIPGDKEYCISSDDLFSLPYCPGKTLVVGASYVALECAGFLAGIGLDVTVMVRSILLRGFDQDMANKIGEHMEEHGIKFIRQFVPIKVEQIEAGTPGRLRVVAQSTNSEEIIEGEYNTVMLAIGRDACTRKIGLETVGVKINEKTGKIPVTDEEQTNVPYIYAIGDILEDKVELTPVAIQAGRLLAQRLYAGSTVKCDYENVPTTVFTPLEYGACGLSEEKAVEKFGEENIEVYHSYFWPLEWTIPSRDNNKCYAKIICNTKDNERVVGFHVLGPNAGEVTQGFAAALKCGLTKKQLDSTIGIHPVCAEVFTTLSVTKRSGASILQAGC
Method: The in vitro TrxR1 activity assay was performed using the DTNB reduction assay. Briefly, 0.1 μM recombinant human TrxR1 or TrxR1 without Sec498 residue (TrxR1 nSec) protein was reduced with 100 μM NADPH in assay buffer (50 mM Tris-HCl, 1 mM EDTA, pH = 7.5) for 30 min at room temperature. The reduced proteins was then treated with the indicated concentrations of PepE (final concentrations of 0.25, 0.5, 1, 2, 4, 6 μM), respectively, and incubated for 1 h at 37 °C. A mixture of assay buffer solution (50 mM Tris-HCl, 1 mM EDTA, pH = 7.5) containing DTNB and NADPH was added then added, making the final concentrations of DTNB and NADPH 2 mM and 200 μM, respectively. The absorbance was monitored at 412 nm using the SpectraMax i3x microplate reader (Molecular Devices). The linear increase of absorbance during the initial 3 min was recorded for calculating the relative enzyme activity. The same amount of DMSO was added to the control experiments and the activity is expressed as the percentage of the control.

recombinant human TrxR1 = target: T3, recombinant human TrxR1 (Homo sapiens, UniProt Q16881); assay: NADPH oxidative activity assay; assay type: biochemical; conditions: 5 μM, TrxR1 0.2 μM
T3 construct: purchased Abcam ab204206
T3 sequence (Q16881 1-499 isoform Q16881-5): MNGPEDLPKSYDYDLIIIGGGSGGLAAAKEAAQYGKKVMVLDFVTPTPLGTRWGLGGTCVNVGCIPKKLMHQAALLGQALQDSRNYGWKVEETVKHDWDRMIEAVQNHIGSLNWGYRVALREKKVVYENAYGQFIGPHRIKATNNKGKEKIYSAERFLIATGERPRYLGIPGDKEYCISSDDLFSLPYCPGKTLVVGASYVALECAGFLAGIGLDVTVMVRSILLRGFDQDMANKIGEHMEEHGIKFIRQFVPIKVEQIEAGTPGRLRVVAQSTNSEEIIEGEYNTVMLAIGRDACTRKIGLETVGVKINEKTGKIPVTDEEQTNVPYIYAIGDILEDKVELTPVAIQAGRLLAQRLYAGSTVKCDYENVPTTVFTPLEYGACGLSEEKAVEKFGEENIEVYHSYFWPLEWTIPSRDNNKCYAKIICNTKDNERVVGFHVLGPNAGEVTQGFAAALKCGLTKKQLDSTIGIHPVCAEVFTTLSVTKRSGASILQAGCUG
Method: The NADPH oxidative activity by TrxR1 in the presence of PepE was performed according to the previous reports. Briefly, the recombinant human TrxR1 protein (0.2 μM) was incubated with either 5 μM of PepE or 5 μM of DNCB at room temperature in assay buffer (50 mM Tris-HCl, 1 mM EDTA, pH = 7.5), same amount of DMSO was used as negative control. NADPH was then added (final concentration was set at 200 μM) and the absorbance was monitored at 340 nm for 30 min using the SpectraMax i3x microplate reader (Molecular Devices), the molar extinction coefficient was set as 6200 M^−1cm^−1. The linear decrease in NADPH absorbance was used for calculating NADPH consumption rate and expressed as NADPH μM^−1min^−1enzyme μM^−1.

C=C1C(=O)OC[C@H]1C(c1cc(OC)c2c(c1)OCO2)c1cc(OC)c2c(c1)OCO2 [PepE, Peperomin E]
Kd (GPX1): 534 µM | kon (GPX1): 6400 M⁻¹ s⁻¹ | IC50 [1]: > 8 µM | consumption of NADPH by TrxR1 relative to the control (recombinant human TrxR1): ~7 fold
